From patent US7495027B2, “3-aryl-4-hydroxyfuranone compounds and the human and animal health use thereof” (Wyeth, priority 2003, dated 2009)

What was measured:
[1] = test system: Trichostrongylus columbriformis; test: In vivo efficacy against T. colubriformis in infected gerbils; conditions: gerbils infected with T. colubriformis, single oral dose of 50 mg/kg by gavage, worm counts four days post-treatment, % mortality as compared to negative control
Outline: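 Gerbils infected with ~800 L3/mL larvae were treated one week later by gavage with a single 50 mg/kg oral dose in PEG 400:DMSO (1:2 v/v), 3 animals per group. Necropsy four days post-treatment, with worms counted under stereoscopes.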

[2] = Toxicity in treated gerbils (deaths or significant weight loss); type: in vivo; parameters: key: +: Toxicity is indicated for those groups having one or more animals expired; conditions: single oral dose of 50 mg/kg
Procedure: In this evaluation, gerbils are infected with Trichostrongylus columbriformis infective larvae at a concentration of approximately 800 L3/mL. Larvae for gerbil infections are cultured from feces from sheep previously infected with T. colubriformis. One week post infection, test compounds are administered by gavage as a single oral dose of 50 mg/kg of body weight. For each group of 3 gerbils, 10 mg of test compound are dissolved in 2 mL of PEG 400:DMSO (1:2 v/v) and each animal is administered the test solution at a rate of 0.1 mL/10 g of body weight. […] All animals are observed daily for morbidity and mortality. Four days post-treatment, all animals are weighed and necropsied. Worm counts are conducted with the use of stereoscopes and counters.

[3] = test system: C. elegans; test: Efficacy against nematodes (C. elegans motility rating); parameters: key: 0: no effect; 7: reduced movement in 24 h; 8: dead in 24 h; 9: dead in 4 h; conditions: observations at 4 h and 24 h postimmersion
Outline: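 Mixed-stage C. elegans (~50 per well, L1 to adult) in M9 buffer exposed to test compound at 100 ppm, 150 ppm or 200 μM final. Motility of larvae and adults scored under dissecting microscope at 4 h and 24 h.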

SMILES	Mortality [1]	Toxicity ([2]; groups of 3)	Rating ([3]; dose 150 ppm)	Rating ([3]; dose 100 ppm)	Mortality ([1]; 50 mg/kg)	Toxicity ([2]; groups of 3, 50 mg/kg)
O=C1O/C(=C\c2ccc(-c3ccccc3)cc2)C(O)=C1c1cc(Cl)cc(Cl)c1 [R=H; R1=3,5-diCl—C6H3; R2=4-biphenyl]	52.60%	+	9			
O=C1OC(=Cc2ccc(Cl)cc2)C(O)=C1c1ccc(OC(F)(F)F)cc1 (mixture of isomers) [R=H; R1=4-OCF3—C6H4**; R2=4-Cl—C6H4]	100.0%	+		9		
O=C1OC(=Cc2ccc(OC(F)(F)F)cc2)C(O)=C1c1ccc(OC(F)(F)F)cc1 (mixture of isomers) [R=H; R1=4-OCF3—C6H4**; R2=4-OCF3—C6H4]	100.0%	+		9		
O=C1O/C(=C\c2ccc(-c3ccc(Cl)cc3)cc2)C(O)=C1c1ccc(Cl)cc1 [R=H; R1=4-Cl—C6H4; R2=4-(4′-Cl-biphenyl)]	61.33%	+	9			
O=C1OC(=Cc2ccc(F)cc2)C(O)=C1c1ccc(OC(F)(F)F)cc1 (mixture of isomers) [R=H; R1=4-OCF3—C6H4**; R2=4-F—C6H4]	0.00%	+		9		
O=C1OC(=Cc2ccc(F)c(F)c2)C(O)=C1c1ccc(OC(F)(F)F)cc1 (mixture of isomers) [R=H; R1=4-OCF3—C6H4**; R2=3,4-diF—C6H3]	100.0%	+		9		
N#Cc1ccc(-c2ccc(/C=C3\OC(=O)C(c4ccc(Cl)cc4)=C3O)cc2)cc1 [R=H; R1=4-Cl—C6H4; R2=4-(4′-CN-biphenyl)]			9		48.90%	+
